For 15 compounds, IC50 and Kd results are on record in publication PMC10889769, “The Molecular and Functional Characterization of Sensory Neuron Membrane Protein 1b (SNMP1b) from Cyrtotrachelus buqueti (Coleoptera: Curculionidae)” (Insects, 2024).

Usually IC50 stands for the concentration at which inhibition is half-maximal.

One experiment deals with T1, CbuqSNMP1b (Cyrtotrachelus buqueti, UniProt A0A9E9JN76). Description: Fluorescence competition binding assay with 1-NPN as fluorescent probe.
T1 sequence (A0A9E9JN76 entry or part of it): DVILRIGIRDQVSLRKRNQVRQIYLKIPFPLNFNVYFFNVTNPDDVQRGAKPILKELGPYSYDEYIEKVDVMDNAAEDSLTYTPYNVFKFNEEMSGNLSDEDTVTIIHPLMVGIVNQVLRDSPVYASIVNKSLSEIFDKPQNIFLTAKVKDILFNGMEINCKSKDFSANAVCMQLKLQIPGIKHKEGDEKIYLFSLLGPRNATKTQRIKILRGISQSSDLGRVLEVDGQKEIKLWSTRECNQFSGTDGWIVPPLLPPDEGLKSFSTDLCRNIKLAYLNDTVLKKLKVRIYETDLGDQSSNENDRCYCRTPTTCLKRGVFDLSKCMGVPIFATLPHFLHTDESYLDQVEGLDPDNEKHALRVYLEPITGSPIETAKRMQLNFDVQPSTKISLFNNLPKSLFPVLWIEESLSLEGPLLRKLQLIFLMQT
Conditions: not given
The method, then:
1-NPN and all of the other chemicals (the purity being at least more than 96%) used in the binding assays were purchased from Aladdin Biochemical Technology Co., Ltd. (Shanghai, China). The Lumina fluorescence spectrophotometer (Thermo Fisher Scientific, Waltham, MA, USA) was used to perform fluorescence binding assays with a 1 cm light path quartz cuvette at room temperature. All the slit widths for both excitation and emission were 10 nm. The 1-NPN and all the other chemicals were dissolved in methanol (HPLC-grade) to a final concentration of 1 mM. The binding constant of 1-NPN was determined by titrating a 2 μM solution of the CbuqSNMP1b protein with aliquots of 2–40 μM 1-NPN concentrations. The binding of 1-NPN was measured at an excitation wavelength of 337 nm. The scanning range was 360–560 nm at each concentration and the maximum fluorescence intensities were plotted against the free ligand concentration.
For `C=C(C)[C@H]1CC=C(C)CC1` [(+)-Limonene], the half-maximal inhibitory concentration (IC50) was above 50 µM.

In turn, `Oc1ccccc1` [Phenol] had an IC50 of 24.1 µM.

The compound `CCCCOC(=O)c1ccccc1C(=O)OCCCC` [Dibutyl phthalate] had an IC50 of 10.4 µM.

Regarding `c1ccc2scnc2c1` [Benzothiazole], the IC50 worked out at 13.3 µM.

As to `C=Cc1ccccc1` [Styrene], the half-inhibitory concentration (IC50) is above 50 µM.

Compound `C[C@@H]1CC[C@H]2C(C)(C)[C@H]3C[C@@]12CC[C@@]3(C)O` [Cedrol] displayed an IC50 above 50 µM.

As to `Cc1cccc(C)c1` [M-xylene], the 50% inhibitory concentration (IC50) is above 50 µM.

`CC(C)=CCC/C(C)=C/CC/C(C)=C/CC/C=C(\C)CC/C=C(\C)CCC=C(C)C` [Squalene] displayed a concentration for half-maximal inhibition (IC50) above 50 µM.

Staying with this experiment, now noted: recombinant CbuqSNMP1b and 1-NPN both at 2 μM; displacement of 1-NPN; room temperature; read-out: IC50.
Take `CCCCCCCCCCCCCCCC(=O)OC` [Methyl hexadecanoate]: the 50% inhibitory concentration (IC50) was above 50 µM.

In the case of `CCCCCCCCC=O` [1-Nonanal], the IC50 is above 50 µM.

As to `CCCCCCCCCC=O` [Decyl aldehyde], the IC50 was above 50 µM.

As for `CCCC/C=C/C=C/C=O` [trans,trans-2,4-Nonadienal], the IC50 was above 50 µM.

With `CCCCCC(=O)OCC` [Ethyl hexanoate], the half-inhibitory concentration (IC50) is above 50 µM.

For `CCCCCCCC(C)=O` [2-Nonanone], the IC50 is above 50 µM.

Another experiment deals with T1, CbuqSNMP1b. As to the kind of experiment: Binding of 1-NPN to CbuqSNMP1b (fluorescence titration, Scatchard analysis). Particulars: 2 μM CbuqSNMP1b titrated with 2–40 μM 1-NPN; Scatchard plot; read-out: dissociation constant (Kd) of the CbuqSNMP1b/1-NPN complex. The method, then: Binding affinities of CbuqSNMP1b to 14 volatiles (Table 1) emitted by female adults of C. buqueti were measured with the fluorescence competition binding assays using N-phenyl-1-naphthylamine (1-NPN) as the fluorescent probe. 1-NPN and all of the other chemicals (the purity being at least more than 96%) used in the binding assays were purchased from Aladdin Biochemical Technology Co., Ltd. (Shanghai, China). The Lumina fluorescence spectrophotometer (Thermo Fisher Scientific, Waltham, MA, USA) was used to perform fluorescence binding assays with a 1 cm light path quartz cuvette at room temperature. All the slit widths for both excitation and emission were 10 nm. The 1-NPN and all the other chemicals were dissolved in methanol (HPLC-grade) to a final concentration of 1 mM. The binding constant of 1-NPN was determined by titrating a 2 μM solution of the CbuqSNMP1b protein with aliquots of 2–40 μM 1-NPN concentrations. The binding of 1-NPN was measured at an excitation wavelength of 337 nm. The scanning range was 360–560 nm at each concentration and the maximum fluorescence intensities were plotted against the free ligand concentration. […]
Consider `c1ccc(Nc2cccc3ccccc23)cc1` [1-NPN, N-phenyl-1-naphthylamine], for which the Kd is 13.3 µM.
